Experimental data reported in US20260076937A1, “COMPOSITION FOR PREVENTING OR TREATING AUTOIMMUNE DISEASES COMPRISING A BCAT1 INHIBITOR” (Seoul National University R&DB Foundation, priority 2024, published 2026).
“Also recorded” adds a separate entry of the source.

Columns and labels:
[1] = test system: TCR-stimulated human CD4+ memory T cells; assay: Cytokine ELISA of culture supernatants, CD4+ memory T cells; format: cell-based
Experimental: The study protocol was reviewed and approved by the Institutional Review Board (IRB) of Seoul National University Hospital. Peripheral blood was drawn from healthy controls (HC) after obtaining written consent from study participants, and all experiments were performed according to approved guidelines. Peripheral blood mononuclear cells (PBMCs) were isolated from peripheral blood using density gradient centrifugation (Biocoll separation solution; BIOCHROM Inc., Cambridge, UK). Total CD4^+ T cells, naive T cells and memory CD4^+ T-cells were isolated in a negative selection manner from CD14^+ monocyte depleted PBMCs using the MojoSort™ Human Total CD4^+ T-Cells, CD4^+ naive T-cells and CD4^+ memory T-cell isolation kit (BioLegend, San Diego, Calif.). Purified T cells were cultured in RPMI 1640 medium (hereinafter, “complete RPMI 1640”) supplemented with 10% fetal bovine serum (FBS), 1% penicillin/streptomycin, and 1% L-glutamine. Cells were stimulated with anti-CD3/CD28-coated microbeads (1:10 ratio, Dynabeads T-Activator CD3/CD28, Thermo Fisher Scientific, Waltham, MA) in the presence of designated chemical inhibitors or reagents including 2-amino-2-norbornanecarboxylic acid (BCH), JPH203, acetate, MG132, VH298, cobalt chloride (CoCl2), cycloheximid (CHX) (all provided by Sigma-Aldrich, St. Louis, MO), BCAT1 inhibitor 2 (Bi2: provided by Cayman Chemical, Ann Arbor, MI), 3-hydroxy-3-methylbutyric acid (HMB; provided by Thermo Fisher Scientific, Waltham, MA), and L-β-homoleucine (LβhL; provided by Santa Cruz Biotechnology, Heidelberg, Germany). In some experiments, a customized medium depleted of five essential amino acids (leucine, valine, isoleucine, phenylalanine, methionine) was used (Welgene, Gyeongsan, South Korea). All amino acids used (L-leucine, L-valine, L-isoleucine, L-phenylalanine, L-methionine) were purchased from Sigma-Aldrich.
IL-17A and IFN-γ amounts in culture supernatants were quantified using commercially available human ELISA kits (IL-17A ELISA kit by eBioscience and human IFN-γ ELISA MAX Deluxe by BioLegend) according to the manufacturer's instructions. Light density was measured using an Infinite M200 instrument (Tecan, Männedorf, Switzerland).

human CD4+ naive T cells = assay: Th17 polarization of human CD4+ naive T cells (RT-qPCR, ELISA); format: cell-based; conditions: Th17-polarized conditions, 7 days, Bi2 10 μM
Experimental: BCAT1 regulates HIF-1α through mTORC1 activation in human CD4^+ T cells. FIG. 11A relates to ubiquitin-proteasome degradation of HIF1a and inhibitors for each step. In FIG. 11B, CD4+ memory T cells were pretreated with Bi2 (10 μM), CoCl2 (100 μM), VH298 (100 μM) or MG132 (5 μM) for 1 hour and stimulated with anti-CD3/CD28 coated microbeads for 8 hours. Cell lysates were immunoblotted against HIF-1α (n=3 independent experiments). In FIG. 11C, CD4+ memory T cells were stimulated for 24 hours and then treated with CHX (0.2 μg/ml) for the specified time before being obtained. Cell lysates were immunoblotted against HIF-1α (n=3 independent experiments). In FIG. 11D, CD4^+ memory T cells were stimulated for a specified time with or without Bi2 (10 μM). […] Cell viability was analyzed by 7-AAD staining using a flow cytometer (n=3). […] The mRNA levels of genes involved in leucine metabolism were quantified using RT-qPCR (n=3). […] The mRNA expression of the signature genes of Th17 (i-j) or Th1 (k-l) and cytokines was measured by RT-qPCR and ELISA, respectively (n=5-7). […]
Total RNA was prepared using TRIzol reagent (Life Technologies, Grand Island, NY), followed by cDNA synthesis (Promega, Madison, WI), followed by real-time quantitative RT-PCR with a CFX system (Bio-Rad, Hercules, CA) using SensiFAST SYBR® Lo-ROX (Bioline, London. UK). […]

SKG mice = assay: Curdlan-induced arthritis in SKG mice; format: in vivo, mouse
Experimental: Eight-week-old female SKG mice used for induction of autoimmune arthritis [e.g., Rheumatoid Arthritis (RA)] were purchased from CLEA Japan (Tokyo, Japan). All mice were bred and managed in a sterile facility at Seoul National University School of Medicine. All experiments were approved by Seoul National University Institutional Animal Experimentation Ethics Committee (IACUC) (approval number: SNU-230825-2-2). At 8 weeks of age, 3 mg/mice curdlan (Wako, Japan) in 300 μl sterile PBS was injected intraperitoneally (i.p.) into mice. Ankle thickness was measured using calipers (Manostat, New York, NY). […] 0 point: no joint swelling; 0.1 point: single finger joint swelling; 0.5 point: minor swelling of wrist, ankle or tail base; 1.0 point: severe swelling of […], […] or tail base. Scores for all joints of each mouse were summed. Mice were euthanized at the end of the experiment and immune cells were extracted from inguinal lymph nodes (inguinal LNs) and joint cells.

[2] = Bi2 i.p. twice a week for 3 weeks

Question: `O=C(NNS(=O)(=O)c1ccccc1C(F)(F)F)c1cc2cc(Cl)ccc2o1` [Bi2, BCATc inhibitor 2] was tested. Which “IL-17A production in CD4+ memory T cells treated with statins” value [1] did it give?
Answer: Its value is “further reduced”.

Question: And the “IFN-γ production by CD4+ memory T cells” value ([1]; TCR stimulation 3 days, Bi2 10 μM, JPH203 10 μM, HMB 0.4 mM, VH298 100 nM, LβhL 400 mg/L)?
Answer: The value was “did not affect”.

Question: What about the “IL-17A production by CD4+ memory T cells” value ([1]; TCR stimulation 3 days, Bi2 10 μM, JPH203 10 μM, statin 10 μM, LβhL 400 mg/L) of the same compound?
Answer: Its value is “preferentially inhibited; also recorded: significantly reduced”.

Question: And the IL-17A secretion (human CD4+ naive T cells)?
Answer: Its IL-17A secretion is “decreased”.

Question: And the “mRNA levels of RORC and IL17A” value (human CD4+ naive T cells)?
Answer: Its value is “significantly reduced”.

Question: What about the “ifng, tgfb1 expression in synovial cells” value (SKG mice; [2]) of the same compound?
Answer: Its value is “significantly reduced”.

Question: What about the “ratio of Th17 cells in CD3+CD4+ T cells in inguinal lymph nodes” value (SKG mice; [2]) of the same compound?
Answer: The value was “significantly reduced”.

Question: What about the arthritis score (SKG mice; Bi2 i.p. twice a week for 3 weeks after curdlan) of the same compound?
Answer: The arthritis score was “significantly lower; also recorded: alleviates”.
